“Also recorded” adds a separate entry of the source.
Assays:
[1] = system: contact sensitivity reaction to DNFB; test: Contact sensitivity to DNFB, ear swelling in mice; assay type: in vivo, BALB/c female mice
Method: The Institutional Ethics Committee of Tel Aviv University approved the study. BALB/c female mice at 8 to 10 weeks of age were used. Oral administration of FTS-A required doses of 50 and 100 mg/kg (10). The compound 2,4-dinitro-l-fluorobenzene (DNFB) and olive oil were obtained from Sigma-Aldrich (St. Louis, Mo.). Mice were sensitized on the shaved abdomen with 50 μl of 0.5% DNFB in a vehicle of 4:1 acetone:olive oil. Mice were ear challenged with 20 μl t of 0.2% DNFB in a vehicle of 4:1 acetone:olive oil after 5 days. A constant area of the ears was measured immediately before challenge and 24 hours later with an engineer's micrometer (Ozaki Mfg. Co., Itabashi, Tokyo). Ear swelling was expressed as the difference in ear thickness before and after the challenge (11).
Next, the ability of FTS-A to inhibit Rap-1-dependent T cell adhesion in vivo was investigated by using contact sensitivity (15) as a model system. Animals were treated orally with two different concentrations of FTS-A (50 mg/kg and 100 mg/kg). […] When treatment was introduced only during the challenge phase (days 5-6), ear swelling was also attenuated.

[2] = system: T cells; test: Viable cell count by tryptan blue exclusion; assay type: cell-based; settings: various concentrations for 72 hours, higher doses, FIG. 3A
Method: Thus, this analog was used for further experiments. First, […] were treated with various concentrations of FTS-A for 72 hours.

[3] = system: Rap1; test: Rap1 GTP loading in Panc-1 cells; assay type: cell-based; settings: for inhibition of Rap1 GTP loading: Panc-1 cells, FIG. 6A; for selectivity between Ras and Rap1: profile of inhibition Ras versus Rap1
Method: (§1) Jurkat T cells were obtained from the American Type Culture Collection (ATCC) (Manassas, VA). The cells were maintained in RPMI 1640 supplemented with 10% FCS, 2 mM 1-glutamine, and 1% penicillin/streptomycin (Biological Industries, Kibutz Beit Haemek, Israel). Panc-1 cells (ATCC) were grown in Dulbecco's modified Eagle medium (DMEM) containing 10% FCS, 2 mM 1-glutamine, and 1% penicillin/streptomycin. The cells were incubated at 37° C. in a humidified atmosphere of 95% air and 5% CO2. Transfection of Jurkat cells was performed with DMRIE-C (Invitrogen, Carlsbad, Calif.), and cells were examined 24 to 48 hours later. Jurkat T cells were serum starved at 37° C. for 2 to 6 hours, followed by stimulation with 5 μg/ml of mouse anti-human CD3.
(§2) Detection of activated Ras and Rap1 was performed as described previously (4, 9).
(§3) Since FTS is known to inhibit Ras, experiments were designed to determine whether the mechanism of Rap1 inhibition by FTS analogs is indirect and mediated by Ras inhibition. Applicants compared the inhibitory profile of FTS and its analogs on both Ras GTP loading and Rap1 GTP loading in Panc-1 cells (FIG. 6B). […] J Med Chem 2009; 52:197-205]. […] Thus, the extent of Ras and Rap1 inhibition by FTS and its analogs is not identical.

[4] = system: Rap1; test: GST pull-down of GTP.Rap1 (Rap1 GTP loading) in Jurkat T cells; assay type: cell-based, human; settings: for lowering of the amount of GTP.Rap1: Jurkat T cells treated overnight, then stimulated with anti CD3 antibodies for 10 minutes, FIG. 1C; for ability to inhibit Rap1 activation, comparison among agents: 50 μM overnight; for amount of GTP.Rap1 compared with untreated cells: quiescent Jurkat T cells, treated overnight, 50 μM, FIG. 1A
Method: as §1, §2
Samples were separated by SDS-PAGE using 10% polyacrylamide gels and transferred to nitrocellulose filters. Blots were blocked for 1 hour in TBST (10 mM Tris-HCl (pH 8.0), 150 mM NaCl, and 0.05% Tween 20) containing 3% serum bovine albumin, followed by overnight incubation at 4° C. with the primary antibodies. Blots were washed and incubated for 1 hour at room temperature with HRP-conjugated secondary antibodies. Immunoreactive bands were visualized using the LAS-3000 imaging system (Fujifilm Corp., Tokyo).
The experiments were designed to determine whether FTS and its analogs are able to inhibit GTP loading of Rap1. Quiescent Jurkat T cells were treated overnight with FTS, FTS-A, and FTS-MOM, each at a concentration of 50 μM. Cells were collected and the quantity of GTP.Rap1 was determined by pull-down assay. Compared with untreated cells (control), the amount of GTP.Rap1 decreased in all conditions (FIG. 1A). […] Since Rap1 is activated in T cells as a result of crosslinking the antigen receptor, the effect of FTS, and its analogs, on Rap1 activation in stimulated T cells, was studied. Cells were treated with FTS and its analogs overnight, and subsequently stimulated with anti CD3 antibodies for 10 minutes. […] FTS lowered the amount of GTP.Rap1 by 32%, while FTS-A and FTS-MOM lowered it by 60% and 53%, respectively (FIG. 1C). Thus, FTS and its analogs are able to inhibit Rap1 activation in T cells stimulated through the antigen receptor.

[5] = system: Rap1; test: Confocal microscopy of Rap1 localization and activation in Jurkat T cells; assay type: cell-based, human
Method: Live cells were plated in 35-mm dishes containing a no. 0 glass coverslip over a 15-mm cutout (MatTek, Ashland, Mass). Cells were maintained at 37° C. using a PDMI-2 microincubator (Harvard Apparatus, Holliston, Mass.). Individual cells were imaged before and after addition of stimuli. Images were acquired with a Zeiss 510 inverted laser scanning confocal microscope (Carl Zeiss Microlmaging, Inc., Thornwood, N.Y.) and processed with Adobe Photoshop CS.
It has been reported that only the pool of Rap1 at the plasma membrane becomes GTP bound on lymphocyte activation (9). The following experiments were designed to study whether Rap1 inhibition by FTS-A is indeed restricted to that compartment. Jurkat T cells, expressing GFP tagged Rap1, were subjected to various agents (FIG. 4A), whereas the localization of Rap1 was recorded by confocal microscopy.
The effects of FTS are rather specific to the active GTP-bound forms of Ras proteins (7). To investigate the possible effect of FTS-A on localization of the active Rap1, the probe for activated Rap1, GFP-RBDRALGDS (13), was utilized. […] In cells that were pretreated by FTS-A, the activation of Rap1 at the plasma membrane was blocked (FIG. 4B) although Rap1 remained associated with the plasma membrane (FIG. 4A). Thus, the pool of Rap1 that is inhibited by FTS-A is found at the plasma membrane.

[6] = system: Ras; test: Ras GTP loading in Panc-1 cells; assay type: cell-based; settings: FIG. 6, also as previously reported (ref. 16)
Method: as §1, §2, §3

[7] = system: Rap1; test: Rap1 inhibition by geranylgeranyl analogue (data not shown)

SMILES | development of contact sensitivity reaction to DNFB ([1]; animal models, dose not given) | ear swelling ([1]; oral, 50 mg/kg, FIG. 5A) | ear swelling ([1]; oral, 100 mg/kg, FIG. 5A) | ear swelling ([1]; treatment during the sensitization phase (days 0-2), FIG. 5B) | ear swelling ([1]; treatment only during the challenge phase (days 5-6), FIG. 5B) | number of viable cells [2] | inhibition of Rap1 GTP loading [3] | selectivity between Ras and Rap1 [3] | lowering of the amount of GTP.Rap1 [4] [%] | ability to inhibit Rap1 activation, comparison among agents ([4]; Jurkat T cells) | inhibitory effect on Rap1 when Ras is knocked down ([4]; Jurkat T cells, N-Ras and K-Ras knocked down via shRNA, FIG. 6B) | amount of GTP.Rap1, dose-response ([4]; higher doses of FTS-A, FIG. 3B) | amount of GTP.Rap1 compared with untreated cells [4] | activation of Rap1 at the plasma membrane ([5]; GFP-RBDRALGDS probe, pretreated cells stimulated through the antigen receptor, FIG. 4B) | localization of overexpressed Rap1 ([5]; Jurkat T cells expressing GFP tagged Rap1, treatment up to 72 hours, FIG. 4A) | localization of Rap-1 ([5]; combined treatment with Bryostatin-1 and FTS-A, FIG. 4A) | inhibition of Ras GTP loading [6] | activation phase of delayed cutaneous hypersensitivity in vivo ([1]; summary statement) | Rap1 inhibition compared with FTS analogs [7]
CC(C)=CCCC(C)=CCCC(C)=CCSc1ccccc1C(N)=O [FTS-A, FTS-amide] | strongly inhibited | only the higher concentration of FTS-A was able to inhibit ear swelling | able to inhibit ear swelling | did not prevent ear swelling | attenuated | decreased | much greater inhibitory activity toward Rap1 than FTS | inhibited both Ras and Rap1 | 60 | superior to FTS; also recorded: greatest amount of Rap1 inhibition | unchanged | further diminished | decreased | blocked | did not change | did not change |  |  | 
COCOC(=O)c1ccccc1SCC=C(C)CCC=C(C)CCC=C(C)C [FTS-MOM, methoxymethyl S-farnesylthiosalicylate] |  |  |  |  |  |  | by far the stronger Rap1 inhibitor; also recorded: strong Rap1 inhibitor | toward Rap1 | 53 | superior to FTS |  |  | decreased |  |  |  | weak Ras inhibitor; also recorded: only a minor inhibitory effect |  | 
CC(C)=CCC/C(C)=C/CC/C(C)=C/CSc1ccccc1C(=O)O [FTS, S-trans,trans-farnesylthiosalicylic acid] |  |  |  |  |  |  | relatively modest | relatively high selectivity of FTS towards Ras | 32 |  |  |  | decreased |  |  |  | comparable to FTS-A | inhibits | 
CC(C)=CCC/C(C)=C/CC/C(C)=C/CC/C(C)=C/CSc1ccccc1C(=O)O [GGTS] |  |  |  |  |  |  |  |  |  |  |  |  |  |  |  |  |  |  | did not prove to be a stronger Rap1 inhibitor
